This note sets out measurements from patent publication US8785488B2 (Exelixis Patent Company LLC, priority 2009, dated 2014).

The assay has as its target T1, human TGR5 (h-TGR5) (Homo sapiens, UniProt Q8TDU6).
T1 construct: expressed in transfected cells
T1 sequence (Q8TDU6 1-330): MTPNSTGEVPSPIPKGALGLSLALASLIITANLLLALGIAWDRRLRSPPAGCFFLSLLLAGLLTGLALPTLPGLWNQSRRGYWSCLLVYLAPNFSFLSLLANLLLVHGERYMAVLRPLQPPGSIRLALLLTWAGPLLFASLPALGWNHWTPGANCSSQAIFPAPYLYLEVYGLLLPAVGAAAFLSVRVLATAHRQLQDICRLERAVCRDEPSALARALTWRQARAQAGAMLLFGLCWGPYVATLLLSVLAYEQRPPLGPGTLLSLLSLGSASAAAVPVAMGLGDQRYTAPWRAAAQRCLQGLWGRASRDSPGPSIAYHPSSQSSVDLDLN
Put plainly: TGR5/CRE-Luciferiase Assay (HEK 293 hTGR5/CRE-Luc cells). It counts as cell-based. Particulars: h-TGR5 CRE-Luc EC50, Table 1; read-out: CRE-Luc (EC50). The procedure:
Compounds were serially diluted in DMEM containing 5% DMSO and 5 μL of compound or media alone was transferred to each well and plates were incubated for 6 hours. Following incubation, 30 μL of lysis/luciferase buffer was added to each well. The luciferase activity was then measured on the EnVision™ plate reader and the dose response data was analyzed using ActivityBase.
In the following tables, EC50 values determined according to the TGR5 cAMP Assay described herein (cAMP); EC50 values determined according to the TGR5/CRE-Luciferiase Assay described herein (CRE-Luc). […] The following compounds in Tables 1 and 2 were made by using procedures described in the above Schemes and Examples, and, where applicable, by making any necessary substitutions of known materials that one skilled in the art would ordinarily understand how to do.

What is called EC50 is the midpoint of the concentration-response curve.

The structures appear in SMILES notation. Bounds are passed on as bounds.

Turning to `CC(C)(c1ccc(Cl)c(Cl)c1)c1cnc(SCc2cc(C#N)ccc2Cl)n1-c1ccc(F)cc1` [4-chloro-3-[({5-[1-(3,4-dichlorophenyl)-1-methylethyl]-1-(4-fluorophenyl)-1H-imidazol-2-yl}thio)methyl]benzonitrile], the EC50 was below 0.1 µM.
Under `COc1ccc(C(C)(C)c2cnc(CNc3ccc(F)cc3Cl)n2-c2ccc(F)cc2)cc1OC` [N-{[5-{1-[3,4-bis(methyloxy)phenyl]-1-methylethyl}-1-(4-fluorophenyl)-1H-imidazol-2-yl]methyl}-2-chloro-4-fluoroaniline] stands below 0.1 µM; under `CC(C)(c1ccc(Cl)c(Cl)c1)c1cnc(S(=O)(=O)NCc2ccc(C(F)(F)F)cc2F)n1-c1ccc(F)cc1` [5-[1-(3,4-dichlorophenyl)-1-methylethyl]-1-(4-fluorophenyl)-N-{[2-fluoro-4-(trifluoromethyl)phenyl]methyl}-1H-imidazole-2-sulfonamide], 0.1 to 1 µM; under `COc1ccc(-c2cnc(SCc3c(F)cccc3Cl)n2-c2ccc(F)cc2)cc1OC` [5-[3,4-bis(methyloxy)phenyl]-2-{[(2-chloro-6-fluorophenyl)methyl]thio}-1-(4-fluorophenyl)-1H-imidazole], 1 to 10 µM.
Take `CC(C)(c1ccc(Cl)c(Cl)c1)c1cnc(SCc2ccc(C(N)=O)c(Cl)c2)n1-c1ccc(F)cc1` [2-chloro-4-[({5-[1-(3,4-dichlorophenyl)-1-methylethyl]-1-(4-fluorophenyl)-1H-imidazol-2-yl}thio)methyl]benzamide]: the EC50 lay in the range of 0.1 to 1 µM.
Under `COc1ccc(C(C)(C)c2cnc(C(=O)Nc3ccc(Cl)c(Cl)c3)n2-c2ccc(F)cc2)cc1OC` [5-{1-[3,4-bis(methyloxy)phenyl]-1-methylethyl}-N-(3,4-dichlorophenyl)-1-(4-fluorophenyl)-1H-imidazole-2-carboxamide] stands 1 to 10 µM.
Under `CC(C)(c1ccc(Cl)c(Cl)c1)c1cnc(SCc2ccc(F)cc2Cl)n1-c1ccc(F)c(C(N)=O)c1` [5-(2-{[(2-chloro-4-fluorophenyl)methyl]thio}-5-[1-(3,4-dichlorophenyl)-1-methylethyl]-1H-imidazol-1-yl)-2-fluorobenzamide] stands 0.1 to 1 µM; under `CC(C)(c1ccc(Cl)c(O)c1)c1cnc(SCc2c(F)cccc2Cl)n1-c1ccc(F)cc1` [2-chloro-5-{1-[2-{[(2-chloro-6-fluorophenyl)methyl]thio}-1-(4-fluorophenyl)-1H-imidazol-5-yl]-1-methylethyl}phenol], below 0.1 µM.
Under `COc1ccc(C(C)(C)c2cnc(C(=O)N(C)c3c(F)cccc3Cl)n2-c2ccc(F)cc2)cc1OC` [5-{1-[3,4-bis(methyloxy)phenyl]-1-methylethyl}-N-(2-chloro-6-fluorophenyl)-1-(4-fluorophenyl)-N-methyl-1H-imidazole-2-carboxamide] stands 1 to 10 µM; under `CC(C)(O)c1ccc(C(C)(C)c2cnc(SCc3ccc(F)cc3Cl)n2-c2ccc(F)cc2)cc1Cl` [2-(2-chloro-4-{1-[2-{[(2-chloro-4-fluorophenyl)methyl]thio}-1-(4-fluorophenyl)-1H-imidazol-5-yl]-1-methylethyl}phenyl)propan-2-ol], 0.1 to 1 µM; under `CC(C)(c1ccc(Cl)c(Cl)c1)c1cnc(SCc2ccc(F)cc2C#N)n1-c1ccc(F)cc1` [2-[({5-[1-(3,4-dichlorophenyl)-1-methylethyl]-1-(4-fluorophenyl)-1H-imidazol-2-yl}thio)methyl]-5-fluorobenzonitrile], 0.1 to 1 µM.
As to `CC(C)(C(=O)O)c1ccc(F)c(CSc2ncc(C(C)(C)c3ccc(Cl)c(Cl)c3)n2-c2ccc(F)cc2)c1` [2-{3-[({5-[1-(3,4-dichlorophenyl)-1-methylethyl]-1-(4-fluorophenyl)-1H-imidazol-2-yl}thio)methyl]-4-fluorophenyl}-2-methylpropanoic acid], the EC50 was 1 to 10 µM.
Turning to `CC(C)(c1ccc(Cl)c(Cl)c1)c1cnc(SCc2ccc(F)cc2S(N)(=O)=O)n1-c1ccc(F)cc1` [2-[({5-[1-(3,4-dichlorophenyl)-1-methylethyl]-1-(4-fluorophenyl)-1H-imidazol-2-yl}thio)methyl]-5-fluorobenzenesulfonamide], the EC50 fell in the range of 0.1 to 1 µM.
As for `CC(C)(c1ccc(OCCO)cc1)c1cnc(SCc2c(F)cccc2Cl)n1-c1ccc(F)cc1` [2-[(4-{1-[2-{[(2-chloro-6-fluorophenyl)methyl]thio}-1-(4-fluorophenyl)-1H-imidazol-5-yl]-1-methylethyl}phenyl)oxy]ethanol], the figure is 0.1 to 1 µM; as for `COc1cc(-n2c(C(C)(C)c3ccc(Cl)c(OC)c3)cnc2SCc2ccc(S(N)(=O)=O)cc2Cl)ccc1F` [3-chloro-4-{[(5-{1-[4-chloro-3-(methyloxy)phenyl]-1-methylethyl}-1-[4-fluoro-3-(methyloxy)phenyl]-1H-imidazol-2-yl)thio]methyl}benzenesulfonamide], below 0.1 µM.
`CC(C)(C)OC(=O)N1CCC(CSc2ncc(C(C)(C)c3ccc(Cl)c(Cl)c3)n2-c2ccc(F)cc2)C1` (centres unmarked) [1,1-dimethylethyl 3-[({5-[1-(3,4-dichlorophenyl)-1-methylethyl]-1-(4-fluorophenyl)-1H-imidazol-2-yl}thio)methyl]pyrrolidine-1-carboxylate]: the 50% effective concentration (EC50) fell in the range of 0.1 to 1 µM.
As for `CC(C)(c1ccc(Cl)c(Cl)c1)c1cnc(SCc2ccc(F)cc2S(C)(=O)=O)n1-c1ccc(F)cc1` [5-[1-(3,4-dichlorophenyl)-1-methylethyl]-2-({[4-fluoro-2-(methylsulfonyl)phenyl]methyl}thio)-1-(4-fluorophenyl)-1H-imidazole], the figure is 0.1 to 1 µM.
As for `CC(C)(c1ccc(Cl)c(Cl)c1)c1cnc(SCc2ccc(Cl)c(C(=O)O)c2)n1-c1ccc(F)cc1` [2-chloro-5-[({5-[1-(3,4-dichlorophenyl)-1-methylethyl]-1-(4-fluorophenyl)-1H-imidazol-2-yl}thio)methyl]benzoic acid], the figure is 0.1 to 1 µM; as for `CC(C)(c1ccc(Cl)c(Cl)c1)c1cnc(COc2ccc(C(N)=O)c(Cl)c2)n1-c1ccc(F)cc1` [2-chloro-4-[({5-[1-(3,4-dichlorophenyl)-1-methylethyl]-1-(4-fluorophenyl)-1H-imidazol-2-yl}methyl)oxy]benzamide], 1 to 10 µM.
Under `CC(C)(c1ccc(F)c(F)c1)c1cnc(SCC2CCN(CC(O)CO)CC2)n1-c1ccc(F)cc1` (centres unmarked) [3-{4-[({5-[1-(3,4-difluorophenyl)-1-methylethyl]-1-(4-fluorophenyl)-1H-imidazol-2-yl}thio)methyl]piperidin-1-yl}propane-1,2-diol] stands 1 to 10 µM; under `COc1c(Cl)cc(C(C)(C)c2cnc(SCc3ccc(F)cc3Cl)n2-c2ccc(F)cc2)cc1Cl`, below 0.1 µM; under `CC(C)(c1ccc(Cl)c(Cl)c1)c1cnc(-c2ccc(F)cc2)n1-c1ccc(F)cc1` [5-[1-(3,4-dichlorophenyl)-1-methylethyl]-1,2-bis(4-fluorophenyl)-1H-imidazole], 0.1 to 1 µM.
Turning to `CC(C)(c1ccc(Cl)c(Cl)c1)c1cnc(SCc2ccc(C(=O)O)c(F)c2)n1-c1ccc(F)cc1` [4-[({5-[1-(3,4-dichlorophenyl)-1-methylethyl]-1-(4-fluorophenyl)-1H-imidazol-2-yl}thio)methyl]-2-fluorobenzoic acid], the EC50 lay within 0.1 to 1 µM.
Regarding `CC(C)(c1ccc(Cl)c(Cl)c1)c1cnc(SCc2ccc(-c3nnn[nH]3)c(Cl)c2)n1-c1ccc(F)cc1` [5-{2-chloro-4-[({5-[1-(3,4-dichlorophenyl)-1-methylethyl]-1-(4-fluorophenyl)-1H-imidazol-2-yl}thio)methyl]phenyl}-1H-tetrazole], the EC50 was in the range of 0.1 to 1 µM.
As for `CC(C)(c1ccc(Cl)c(Cl)c1)c1c(-c2ccccc2)nc(SCc2c(F)cccc2Cl)n1-c1ccc(F)cc1` [2-{[(2-chloro-6-fluorophenyl)methyl]thio}-5-[1-(3,4-dichlorophenyl)-1-methylethyl]-1-(4-fluorophenyl)-4-phenyl-1H-imidazole], the EC50 is 1 to 10 µM.
Turning to `CC(C)(c1ccc(C(F)(F)F)cc1)c1cnc(SCc2c(F)cccc2Cl)n1-c1ccc(F)cc1` [2-{[(2-chloro-6-fluorophenyl)methyl]thio}-1-(4-fluorophenyl)-5-{1-methyl-1-[4-(trifluoromethyl)phenyl]ethyl}-1H-imidazole], the EC50 lay within 0.1 to 1 µM.
As for `CC(C)(c1ccc(Cl)c(OCCCO)c1)c1cnc(SCc2c(F)cccc2Cl)n1-c1ccc(F)cc1` [3-[(2-chloro-5-{1-[2-{[(2-chloro-6-fluorophenyl)methyl]thio}-1-(4-fluorophenyl)-1H-imidazol-5-yl]-1-methylethyl}phenyl)oxy]propan-1-ol], the concentration for a half-maximal effect (EC50) lay in the range of 0.1 to 1 µM.
For `CC(C)(c1ccc(Cl)c(Cl)c1)c1cnc(S(=O)(=O)C(C)(C)c2c(F)cccc2Cl)n1-c1ccc(F)cc1` [2-{[1-(2-chloro-6-fluorophenyl)-1-methylethyl]sulfonyl}-5-[1-(3,4-dichlorophenyl)-1-methylethyl]-1-(4-fluorophenyl)-1H-imidazole], the EC50 was 0.1 to 1 µM.
As for `CC(C)(c1ccc(Cl)c(Cl)c1)c1cnc(SCc2c(F)cccc2C(=O)O)n1-c1ccc(F)cc1` [2-[({5-[1-(3,4-dichlorophenyl)-1-methylethyl]-1-(4-fluorophenyl)-1H-imidazol-2-yl}thio)methyl]-3-fluorobenzoic acid], the figure is 0.1 to 1 µM.
